# Activity calls are given as the source filed them. No cut-off for these calls is given here.
# Assays:
# Rattus norvegicus [1] = assay: Ex vivo inhibition of HSP90 in Sprague-Dawley rat assessed as up regulation of HSP70 expression in retina at 10 mg/kg, iv administered for 2 consecutive days and measured 24 hrs post last dose by immunohistochemistry analysis; type: functional, organism-based; settings: time 3.0 day
# Rattus norvegicus [2] = assay: Ex vivo inhibition of HSP90 in Sprague-Dawley rat assessed as up regulation of HSP70 expression in retina at 10 mg/kg, iv administered for 2 consecutive days and measured 24 hrs post last dose by Western blot analysis; type: functional, organism-based
# [3] = Ocular toxicity in Sprague-Dawley rat retina damage model assessed as induction of retinal cell death at 10 mg/kg, iv administered for 2 consecutive days by TUNEL staining based analysis; type: organism-based; settings: in vivo, 48 h, time 2 day
# [4] = Distribution coefficient, logD of compound at pH 7.4; type: physicochemical; settings: octanol/water
# [5] = Half-life in rat at 50 mg/kg, po measured upto 24 hrs by LC-MS/MS analysis; type: ADME, organism-based; settings: in vivo
# MDA-MB-468 = assay: Antiproliferative activity against human MDA-MB-468 assessed as reduction in cell viability incubated for 72 hrs by MTT assay; type: functional, cell-based; settings: MDA-MB-468, 72 h
# [6] = AUC (0 to t) in rat at 50 mg/kg, po measured upto 24 hrs by LC-MS/MS analysis; type: ADME, organism-based; set-up: route oral, dose 50 mg/kg, time <=24; settings: in vivo
# [7] = Intrinsic aqueous solubility of the compound; type: physicochemical
# [8] = Cmax in rat at 50 mg/kg, po measured upto 24 hrs by LC-MS/MS analysis; type: ADME, organism-based; set-up: route oral, dose 50 mg/kg, time <=24; settings: in vivo
# MKN-28 = assay: Antiproliferative activity against human MKN-28 assessed as reduction in cell viability incubated for 72 hrs by MTT assay; type: functional, cell-based; settings: MKN-28, 72 h
# [9] = Drug distribution in spleen of mouse xenografted with human HCT-116 cells at 60 mg/kg, iv by LC-MS/MS analysis; settings: in vivo
# Endoplasmin = Endoplasmin (Homo sapiens, UniProt P14625); assay: Displacement of FITC-geldanamycin from N-terminal GRP94 (unknown origin) after 30 mins by fluorescence polarization competitive binding assay
# Sequence of Endoplasmin (P14625 whole entry): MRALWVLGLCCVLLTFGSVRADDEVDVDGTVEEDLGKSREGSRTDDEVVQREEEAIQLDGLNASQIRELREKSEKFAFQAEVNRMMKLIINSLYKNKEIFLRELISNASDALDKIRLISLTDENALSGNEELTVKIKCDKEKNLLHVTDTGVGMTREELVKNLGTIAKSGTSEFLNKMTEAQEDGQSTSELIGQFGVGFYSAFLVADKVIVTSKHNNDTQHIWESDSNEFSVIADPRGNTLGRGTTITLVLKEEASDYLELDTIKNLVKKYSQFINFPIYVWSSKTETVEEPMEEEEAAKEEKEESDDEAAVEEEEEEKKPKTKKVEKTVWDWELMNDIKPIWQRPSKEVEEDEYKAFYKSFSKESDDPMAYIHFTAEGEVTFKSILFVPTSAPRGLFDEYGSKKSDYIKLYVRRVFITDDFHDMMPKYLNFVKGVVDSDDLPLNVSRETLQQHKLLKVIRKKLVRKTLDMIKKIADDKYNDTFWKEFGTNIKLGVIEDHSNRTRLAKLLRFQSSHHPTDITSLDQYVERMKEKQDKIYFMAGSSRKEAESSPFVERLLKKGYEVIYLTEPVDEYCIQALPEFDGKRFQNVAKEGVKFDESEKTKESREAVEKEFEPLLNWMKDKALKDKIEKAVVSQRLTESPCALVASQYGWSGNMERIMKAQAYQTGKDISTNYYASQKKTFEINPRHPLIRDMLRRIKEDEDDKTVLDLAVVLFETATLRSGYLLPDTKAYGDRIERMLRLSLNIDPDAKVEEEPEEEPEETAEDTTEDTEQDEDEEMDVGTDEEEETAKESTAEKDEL
# [10] = Apparent clearance during terminal phase in rat at 50 mg/kg, po measured upto 24 hrs by LC-MS/MS analysis; type: ADME, organism-based; settings: in vivo, read-out: CLz/F (converted)
# CYP2C19 = CYP2C19 (Homo sapiens, UniProt P33261); assay: Inhibition of CYP2C19 in human liver microsomes at 10 uM using mephenytoin as substrate preincubated for 5 mins followed by NADPH addition and measured after 20 mins by LC-MS/MS analysis relative to control; settings: probe mephenytoin
# Sequence of CYP2C19 (P33261 whole entry): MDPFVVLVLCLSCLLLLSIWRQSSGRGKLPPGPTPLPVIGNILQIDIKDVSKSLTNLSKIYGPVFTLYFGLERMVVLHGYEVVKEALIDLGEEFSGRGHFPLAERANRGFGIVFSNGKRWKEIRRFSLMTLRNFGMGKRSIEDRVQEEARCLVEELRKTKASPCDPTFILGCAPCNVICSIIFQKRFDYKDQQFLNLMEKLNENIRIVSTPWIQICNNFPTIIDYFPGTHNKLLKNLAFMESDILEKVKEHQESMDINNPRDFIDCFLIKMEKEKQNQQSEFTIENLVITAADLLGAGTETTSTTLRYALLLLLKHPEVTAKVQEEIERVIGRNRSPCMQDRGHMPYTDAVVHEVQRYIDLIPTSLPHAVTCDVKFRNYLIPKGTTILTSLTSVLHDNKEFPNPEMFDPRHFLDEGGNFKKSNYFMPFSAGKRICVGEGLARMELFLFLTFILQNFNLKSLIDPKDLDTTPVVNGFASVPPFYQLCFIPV
# [11] = Drug distribution in liver of mouse xenografted with human HCT-116 cells at 60 mg/kg, iv by LC-MS/MS analysis; settings: in vivo
# [12] = target: Heat shock protein HSP 90-alpha (Homo sapiens, UniProt P07900); assay: Displacement of FITC-geldanamycin from N-terminal HSP90alpha (unknown origin) after 30 mins by fluorescence polarization competitive binding assay
# [13] = Intrinsic clearance in human liver microsomes at 1 uM preincubated for 5 mins followed by NADPH addition and measured up to 120 mins by LC-MS/MS analysis; type: ADME, Microsome; settings: 2 h, time <=125 min
# CYP2C9 = CYP2C9 (Homo sapiens, UniProt P11712); assay: Inhibition of CYP2C9 in human liver microsomes at 10 uM using diclofenac as substrate preincubated for 5 mins followed by NADPH addition and measured after 20 mins by LC-MS/MS analysis relative to control; type: ADME; settings: probe diclofenac, time 25 min
# Sequence of CYP2C9 (P11712 whole entry): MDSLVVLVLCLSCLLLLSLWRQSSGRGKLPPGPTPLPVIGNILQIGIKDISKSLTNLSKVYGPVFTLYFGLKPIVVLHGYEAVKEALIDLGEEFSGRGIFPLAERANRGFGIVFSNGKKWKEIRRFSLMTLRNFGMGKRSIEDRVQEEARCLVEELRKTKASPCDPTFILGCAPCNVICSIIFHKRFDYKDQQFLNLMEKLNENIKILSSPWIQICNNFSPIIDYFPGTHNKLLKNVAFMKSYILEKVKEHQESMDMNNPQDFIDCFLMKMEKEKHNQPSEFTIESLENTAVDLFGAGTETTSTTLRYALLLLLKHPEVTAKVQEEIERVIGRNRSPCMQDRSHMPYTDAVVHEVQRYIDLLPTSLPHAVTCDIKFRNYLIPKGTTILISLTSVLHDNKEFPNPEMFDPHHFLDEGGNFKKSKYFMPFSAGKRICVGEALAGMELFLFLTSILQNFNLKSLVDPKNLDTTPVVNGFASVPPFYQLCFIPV
# BT-474 = assay: Antiproliferative activity against human BT-474 assessed as reduction in cell viability incubated for 72 hrs by MTT assay; type: functional, cell-based; settings: BT-474, 72 h
# CYP1A2 = CYP1A2 (Homo sapiens, UniProt P05177); assay: Inhibition of CYP1A2 in human liver microsomes at 10 uM using phenacetin as substrate preincubated for 5 mins followed by NADPH addition and measured after 20 mins by LC-MS/MS analysis relative to control; type: ADME; settings: probe phenacetin, time 25 min
# Sequence of CYP1A2 (P05177 whole entry): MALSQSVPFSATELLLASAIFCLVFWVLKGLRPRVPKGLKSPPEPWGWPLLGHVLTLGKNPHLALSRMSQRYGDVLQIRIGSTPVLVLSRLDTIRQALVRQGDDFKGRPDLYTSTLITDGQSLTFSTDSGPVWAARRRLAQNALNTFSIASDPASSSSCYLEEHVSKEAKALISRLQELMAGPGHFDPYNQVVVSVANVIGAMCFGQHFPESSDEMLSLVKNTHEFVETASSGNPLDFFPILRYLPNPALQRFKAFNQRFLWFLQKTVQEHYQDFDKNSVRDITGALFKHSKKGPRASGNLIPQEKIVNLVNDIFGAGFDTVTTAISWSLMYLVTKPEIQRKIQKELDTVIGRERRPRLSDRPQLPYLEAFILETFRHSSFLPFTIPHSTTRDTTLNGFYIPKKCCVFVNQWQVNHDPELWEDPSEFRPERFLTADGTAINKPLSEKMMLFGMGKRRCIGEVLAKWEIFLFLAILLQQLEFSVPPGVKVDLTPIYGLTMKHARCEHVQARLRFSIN
# HepG2 = assay: Antiproliferative activity against human HepG2 assessed as reduction in cell viability incubated for 72 hrs by MTT assay; type: functional, cell-based; settings: HepG2, 72 h
# MV4-11 = assay: Antiproliferative activity against human MV4-11 assessed as reduction in cell viability incubated for 72 hrs by MTT assay; type: functional, cell-based; settings: MV4-11, 72 h
# CYP2D6 = CYP2D6 (Homo sapiens, UniProt P10635); assay: Inhibition of CYP2D6 in human liver microsomes at 10 uM using dextromethorphan as substrate preincubated for 5 mins followed by NADPH addition and measured after 20 mins by LC-MS/MS analysis relative to control; type: ADME; settings: probe dextromethorphan, time 25 min
# Sequence of CYP2D6 (P10635 whole entry): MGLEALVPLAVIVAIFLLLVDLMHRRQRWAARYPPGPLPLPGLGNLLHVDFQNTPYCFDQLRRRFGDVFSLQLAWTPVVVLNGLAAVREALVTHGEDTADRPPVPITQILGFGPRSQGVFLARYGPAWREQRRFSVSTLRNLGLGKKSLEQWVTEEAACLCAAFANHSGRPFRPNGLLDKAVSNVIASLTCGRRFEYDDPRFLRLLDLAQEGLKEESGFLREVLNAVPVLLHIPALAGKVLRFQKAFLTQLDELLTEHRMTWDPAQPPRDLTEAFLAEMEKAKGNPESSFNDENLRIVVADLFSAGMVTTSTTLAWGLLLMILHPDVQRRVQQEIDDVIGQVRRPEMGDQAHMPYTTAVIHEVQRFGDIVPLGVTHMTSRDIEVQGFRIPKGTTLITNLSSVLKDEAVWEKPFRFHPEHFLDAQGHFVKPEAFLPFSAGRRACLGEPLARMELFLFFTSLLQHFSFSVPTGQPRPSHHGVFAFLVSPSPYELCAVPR
# [14] = Tmax in rat at 50 mg/kg, po measured upto 24 hrs by LC-MS/MS analysis; type: ADME, organism-based; settings: in vivo
# U2OS = assay: Antiproliferative activity against human U2OS assessed as reduction in cell viability incubated for 72 hrs by MTT assay; type: functional, cell-based
# CYP3A4 = CYP3A4 (Homo sapiens, UniProt P08684); assay: Inhibition of CYP3A4 in human liver microsomes at 10 uM using midazolam as substrate preincubated for 5 mins followed by NADPH addition and measured after 20 mins by LC-MS/MS analysis relative to control; type: ADME; settings: probe midazolam, time 25 min
# Sequence of CYP3A4 (P08684 whole entry): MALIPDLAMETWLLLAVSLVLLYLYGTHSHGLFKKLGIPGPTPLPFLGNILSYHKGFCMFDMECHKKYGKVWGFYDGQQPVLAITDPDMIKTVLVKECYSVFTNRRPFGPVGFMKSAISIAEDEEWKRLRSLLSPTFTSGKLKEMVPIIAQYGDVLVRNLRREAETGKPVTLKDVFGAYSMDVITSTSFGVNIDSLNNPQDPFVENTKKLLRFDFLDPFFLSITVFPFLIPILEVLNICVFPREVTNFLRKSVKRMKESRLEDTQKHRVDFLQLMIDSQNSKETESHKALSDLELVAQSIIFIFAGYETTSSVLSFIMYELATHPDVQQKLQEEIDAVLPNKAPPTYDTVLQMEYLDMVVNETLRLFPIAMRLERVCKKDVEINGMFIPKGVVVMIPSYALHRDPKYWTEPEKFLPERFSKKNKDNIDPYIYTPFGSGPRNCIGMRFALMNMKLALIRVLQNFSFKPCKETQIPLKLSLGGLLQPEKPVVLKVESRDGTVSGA
# MDA-MB-231 = assay: Antiproliferative activity against human MDA-MB-231 assessed as reduction in cell viability incubated for 72 hrs by MTT assay; type: functional, cell-based; settings: MDA-MB-231, 72 h
# [15] = AUC (0 to t) in rat at 10 mg/kg, iv measured upto 24 hrs by LC-MS/MS analysis; type: ADME, organism-based; set-up: route intravenous, dose 10 mg/kg, time <=24; settings: in vivo
# [16] = Drug concentration in tumor of mouse xenografted with human HCT-116 cells at 60 mg/kg, iv measured at 48 hrs by LC-MS/MS analysis; settings: in vivo
# [17] = Half life in human liver microsomes at 1 uM preincubated for 5 mins followed by NADPH addition and measured up to 120 mins by LC-MS/MS analysis; type: ADME, Microsome; settings: 2 h, time <=125 min
# [18] = Permeability of the compound at pH 7.4 by PAMPA; type: ADME; settings: read-out: permeability
# [19] = Oral bioavailability in rat at 50 mg/kg measured upto 24 hrs by LC-MS/MS analysis; type: ADME, organism-based; settings: in vivo
# SK-BR-3 = assay: Antiproliferative activity against human SK-BR-3 assessed as reduction in cell viability incubated for 72 hrs by MTT assay; type: functional, cell-based; settings: SK-BR-3, 72 h
# [20] = Ocular toxicity in Sprague-Dawley rat retina damage model assessed as induction of retinal cell death at 20 mg/kg, iv administered for 2 consecutive days by TUNEL staining based analysis; type: organism-based; settings: in vivo, 48 h, time 2 day
# MCF7 = assay: cells; settings: Homo sapiens, MCF7, 72 h
# HCT-116 = assay: cells; settings: Homo sapiens, HCT-116, 72 h
# Description: Antiproliferative activity against human HCT-116 cells assessed as reduction in cell viability incubated for 72 hrs by MTT assay
# T47D = assay: Antiproliferative activity against human T47D assessed as reduction in cell viability incubated for 72 hrs by MTT assay; type: functional, cell-based
# L02 = assay: Cytotoxicity against human L02 cells assessed as reduction in cell viability incubated for 72 hrs by MTT assay; type: cell-based; settings: L02, 72 h
# [21] = Apparent volume of distribution in rat at 10 mg/kg, iv measured upto 24 hrs by LC-MS/MS analysis; type: ADME, organism-based; settings: in vivo, read-out: Vz
# A549 = assay: Antiproliferative activity against human A549 assessed as reduction in cell viability incubated for 72 hrs by MTT assay; type: functional, cell-based; settings: A549, 72 h
# [22] = Metabolic stability in human liver microsomes assessed as parent compound remaining at 1 uM preincubated for 5 mins followed by NADPH addition and measured up to 120 mins by LC-MS/MS analysis; type: ADME, Microsome; settings: 2 h, time <=125 min
# K562 = assay: Antiproliferative activity against human K562 assessed as reduction in cell viability incubated for 72 hrs by MTT assay; type: functional, cell-based; settings: K562, 72 h
# [23] = Apparent volume of distribution in rat at 50 mg/kg, po measured upto 24 hrs by LC-MS/MS analysis; type: ADME, organism-based; settings: in vivo
# [24] = Apparent clearance during terminal phase in rat at 10 mg/kg, iv measured upto 24 hrs by LC-MS/MS analysis; type: ADME, organism-based; settings: in vivo
# [25] = Half-life in rat at 10 mg/kg, iv measured upto 24 hrs by LC-MS/MS analysis; type: ADME, organism-based; settings: in vivo
# [26] = Drug distribution in blood of mouse xenografted with human HCT-116 cells at 60 mg/kg, iv by LC-MS/MS analysis; settings: in vivo
smiles,measurement,setting,value
CCNC(=O)c1noc(-c2cc(C(C)C)c(O)cc2O)c1-c1ccc(CN2CCOCC2)cc1 [LUMINESPIB],inhibition,Rattus norvegicus [1],Active
same,inhibition,Rattus norvegicus [2],Active
same,Activity,[3],Toxic
CCNc1nc(OCCOC)nc2c1CN(C(=O)c1cc(C(C)C)c(O)cc1O)CC2,logD,[4],2.32
same,half-life,[5],9.4 h
same,IC50,MDA-MB-468,135 nM
same,AUC(0-t) at 24 h,[6],409 ng·h/mL
same,solubility,[7],192 µg/mL
same,Cmax,[8],72.6 ng/mL
same,IC50,MKN-28,434 nM
same,Drug uptake,[9],Active
same,IC50,Endoplasmin,729 nM
same,CL/F,[10],2060 mL/min/kg
same,"inhibition at 20 min, 10 µM",CYP2C19,21%
same,Drug uptake,[11],Active
same,IC50,[12],28 nM
same,CLint,[13],4.45 mL/min/kg
same,"inhibition at 20 min, 10 µM",CYP2C9,36%
same,IC50,BT-474,95 nM
same,"inhibition at 20 min, 10 µM",CYP1A2,8%
same,IC50,HepG2,153 nM
same,IC50,MV4-11,27 nM
same,"inhibition at 20 min, 10 µM",CYP2D6,48%
same,Tmax,[14],0.5 h
same,IC50,U2OS,52 nM
same,"inhibition at 20 min, 10 µM",CYP3A4,22%
same,IC50,MDA-MB-231,119 nM
same,AUC(0-t) at 24 h,[15],1930 ng·h/mL
same,Ct,[16],> 3 uM/L
same,t1/2,[17],3.53 h
same,Papp,[18],71.5 ×10⁻⁶ cm/s
same,bioavailability,[19],4.23%
same,IC50,SK-BR-3,243 nM
same,Activity,[20],Non-Toxic
same,IC50,MCF7,100 nM
same,IC50,HCT-116,140 nM
same,IC50,T47D,195 nM
same,IC50,L02,34000 nM
same,Vd,[21],29.6 L/kg
same,IC50,A549,194 nM
same,Stabilty,[22],90.4%
same,IC50,K562,119 nM
same,Vz,[23],1620.19 L/kg
same,CLz/F,[24],87.5 mL/min/kg
same,half-life,[25],3.95 h
same,Drug uptake,[26],Active

# From ChEMBL document CHEMBL4706476, “Novel Tetrahydropyrido[4,3-d]pyrimidines as Potent Inhibitors of Chaperone Heat Shock Protein 90” (J Med Chem, 2016)
